Measured values reported in PMC10302868 (Molecules, 2023).
≈ marks a conversion by molar mass, not a printed value.

How the values were obtained:
[1] = system: S. aureus ATCC 29213 (MSSA); test: MIC determination; type: cell-based; conditions: Staphylococcus aureus
[2] = system: S. aureus ATCC 700698 (MRSA); test: MIC determination; type: cell-based; conditions: Staphylococcus aureus
[3] = system: S. aureus SAU-0167 (MRSA); test: MIC determination; type: cell-based; conditions: Staphylococcus aureus
[4] = system: S. aureus SAU-9922 (MRSA); test: MIC determination; type: cell-based; conditions: Staphylococcus aureus
S. epidermidis SEP-1024 = test: MIC determination; type: cell-based; conditions: Staphylococcus epidermidis, SEP1024
S. pneumoniae SPN-1169 = test: MIC determination; type: cell-based; conditions: Streptococcus pneumoniae, SPN1169
S. pyogenes SPY-0253 = test: MIC determination; type: cell-based; conditions: Streptococcus pyogenes, SPY0253
[5] = system: E. faecium EFA-0221 (VRE); test: MIC determination; type: cell-based; conditions: Enterococcus faecium
E. faecalis EFA-1299 = test: MIC determination; type: cell-based; conditions: Enterococcus faecalis, EFA1299
E. faecalis ATCC 29212 = test: MIC determination; type: cell-based; conditions: Enterococcus faecalis, ATCC29212
H. influenzae ATCC 49247 = test: MIC determination; type: cell-based; conditions: Haemophilus influenzae, ATCC49247
A. baumannii ATCC 17978 = test: MIC determination; type: cell-based; conditions: Acinetobacter baumannii, ATCC17978
[6] = system: A. baumannii ATCC BAA-1605; test: MIC determination; type: cell-based; conditions: Acinetobacter baumannii, ATCCBAA1605
[7] = system: K. pneumoniae ATCC BAA-1705; test: MIC determination; type: cell-based; conditions: Klebsiella pneumoniae, ATCCBAA1705
P. aeruginosa ATCC 27853 = test: MIC determination; type: cell-based; conditions: Pseudomonas aeruginosa, ATCC27853
E. coli ATCC 25922 = test: MIC determination; type: cell-based; conditions: Escherichia coli, ATCC25922
S. maltophilia STM-0001 = test: MIC determination; type: cell-based; conditions: Stenotrophomonas maltophilia, STM0001
[8] = system: M. tuberculosis H37Rv ATCC27294; test: MIC determination (Microplate Alamar Blue Assay); type: cell-based, Mycobacterium tuberculosis; conditions: Mycobacterium tuberculosis, 168 h, M. tuberculosis H37Rv ATCC27294, 7 days; read-out: MIC
[9] = system: M. bovis BCG (Pasteur 1173P2); test: microbe, parasite or virus in culture; type: cell-based; conditions: Mycobacterium tuberculosis variant bovis BCG, 168 h
M. smegmatis mc^2155 = test: MIC determination (Microplate Alamar Blue Assay); type: cell-based; conditions: Mycolicibacterium smegmatis; M. smegmatis mc^2155, 72 h
M. abscessus-GDI = test: MIC determination (Microplate Alamar Blue Assay); type: cell-based, Mycobacterium abscessus; conditions: Mycobacteroides abscessus, 72 h
M. abscessus-C16 = test: MIC determination (Microplate Alamar Blue Assay); type: cell-based, Mycobacterium abscessus; conditions: Mycobacteroides abscessus; M. abscessus-C16, 72 h
M. abscessus-C28 = test: MIC determination (Microplate Alamar Blue Assay); type: cell-based, Mycobacterium abscessus; conditions: Mycobacteroides abscessus, 72 h
M. abscessus-C58 = test: MIC determination (Microplate Alamar Blue Assay); type: cell-based, Mycobacterium abscessus; conditions: Mycobacteroides abscessus; M. abscessus-C58, 72 h

Compound	MIC [3] [µg/mL]	MIC [4] [µg/mL]	MIC (S. epidermidis SEP-1024) [µg/mL]	MIC (S. pneumoniae SPN-1169) [µg/mL]	MIC (S. pyogenes SPY-0253) [µg/mL]	MIC [5] [µg/mL]	MIC (E. faecalis EFA-1299) [µg/mL]	MIC (H. influenzae ATCC 49247) [µg/mL]	MIC [6] [µg/mL]	MIC (S. maltophilia STM-0001) [µg/mL]	further results
CO[C@H]1/C=C/O[C@@]2(C)Oc3c(C)c(O)c4c(O)c(c(/C=N/N5CCN(C)CC5)c(O)c4c3C2=O)NC(=O)/C(C)=C\C=C\[C@H](C)[C@H](O)[C@@H](C)[C@@H](O)[C@@H](C)[C@H](OC(C)=O)[C@@H]1C [Rifampicin]	≤ 0.031	≤ 0.031	≤ 0.031	≤ 0.031	0.063 (≈ 0.0766 µM)	4 (≈ 4.86 µM)	1 (≈ 1.22 µM)	0.25 (≈ 0.304 µM)	4 (≈ 4.86 µM)	16 (≈ 19.4 µM)	MIC [1]: 0.0063 µg/mL (≈ 0.00766 µM); MIC [2]: ≤ 0.031 µg/mL; MIC (E. faecalis ATCC 29212): 2 µg/mL (≈ 2.43 µM); MIC (A. baumannii ATCC 17978): 2 µg/mL (≈ 2.43 µM); MIC [7]: > 32 µg/mL; MIC (P. aeruginosa ATCC 27853): > 32 µg/mL; MIC (E. coli ATCC 25922): 8 µg/mL (≈ 9.72 µM); MIC [8]: 0.031 µg/mL (≈ 0.0377 µM); MIC [9]: ≤ 0.031 µg/mL; MIC (M. smegmatis mc^2155): 13.3 µg/mL (≈ 16.1 µM); MIC (M. abscessus-GDI): > 20 µg/mL; MIC (M. abscessus-C16): > 20 µg/mL; MIC (M. abscessus-C28): > 20 µg/mL; MIC (M. abscessus-C58): > 20 µg/mL
O=C(O)c1cn(C2CC2)c2cc(N3CCNCC3)c(F)cc2c1=O [Ciproflox, Ciprofloxacin]	> 32	> 32	0.25 (≈ 0.754 µM)	1 (≈ 3.02 µM)	0.25 (≈ 0.754 µM)	> 32	0.25 (≈ 0.754 µM)	≤ 0.031	> 32	2 (≈ 6.04 µM)	
